Experimental data from BigSolDB 2.1.

Brc1cnc2[nH]ccc2c1
solubility (mole fraction) (in acetonitrile, 278.15 K): 0.00224 | solubility (mole fraction) (in acetonitrile, 283.15 K): 0.00304 | solubility (mole fraction) (in acetonitrile, 288.15 K): 0.00366 | solubility (mole fraction) (in acetonitrile, 293.15 K): 0.00436 | solubility (mole fraction) (in acetonitrile, 298.15 K): 0.00519 | solubility (mole fraction) (in acetonitrile, 303.15 K): 0.00616 | solubility (mole fraction) (in acetonitrile, 308.15 K): 0.00726 | solubility (mole fraction) (in acetonitrile, 313.15 K): 0.00858 | solubility (mole fraction) (in acetonitrile, 318.15 K): 0.00981 | solubility (mole fraction) (in acetonitrile, 323.15 K): 0.0116 | solubility (mole fraction) (in dichloromethane, 278.15 K): 0.00083 | solubility (mole fraction) (in dichloromethane, 283.15 K): 0.00133 | solubility (mole fraction) (in dichloromethane, 288.15 K): 0.00216 | solubility (mole fraction) (in dichloromethane, 293.15 K): 0.00333 | solubility (mole fraction) (in dichloromethane, 298.15 K): 0.00505 | solubility (mole fraction) (in dichloromethane, 303.15 K): 0.00749 | solubility (mole fraction) (in dichloromethane, 308.15 K): 0.0106 | solubility (mole fraction) (in dichloromethane, 313.15 K): 0.0148 | solubility (mole fraction) (in ethanol, 278.15 K): 0.0078 | solubility (mole fraction) (in ethanol, 283.15 K): 0.00958 | solubility (mole fraction) (in ethanol, 288.15 K): 0.0106 | solubility (mole fraction) (in ethanol, 293.15 K): 0.0125 | solubility (mole fraction) (in ethanol, 298.15 K): 0.0139 | solubility (mole fraction) (in ethanol, 303.15 K): 0.0158 | solubility (mole fraction) (in ethanol, 308.15 K): 0.0177 | solubility (mole fraction) (in ethanol, 313.15 K): 0.0198 | solubility (mole fraction) (in ethanol, 318.15 K): 0.0222 | solubility (mole fraction) (in ethanol, 323.15 K): 0.0245 | solubility (mole fraction) (in ethyl acetate, 278.15 K): 0.0161 | solubility (mole fraction) (in ethyl acetate, 283.15 K): 0.0184 | solubility (mole fraction) (in ethyl acetate, 288.15 K): 0.02 | solubility (mole fraction) (in ethyl acetate, 293.15 K): 0.0225 | solubility (mole fraction) (in ethyl acetate, 298.15 K): 0.0258 | solubility (mole fraction) (in ethyl acetate, 303.15 K): 0.0286 | solubility (mole fraction) (in ethyl acetate, 308.15 K): 0.0321 | solubility (mole fraction) (in ethyl acetate, 313.15 K): 0.0363 | solubility (mole fraction) (in ethyl acetate, 318.15 K): 0.0404 | solubility (mole fraction) (in ethyl acetate, 323.15 K): 0.045 | solubility (mole fraction) (in isopropanol, 278.15 K): 0.00779 | solubility (mole fraction) (in isopropanol, 283.15 K): 0.00915 | solubility (mole fraction) (in isopropanol, 288.15 K): 0.0106 | solubility (mole fraction) (in isopropanol, 293.15 K): 0.0123 | solubility (mole fraction) (in isopropanol, 298.15 K): 0.0143 | solubility (mole fraction) (in isopropanol, 303.15 K): 0.0165 | solubility (mole fraction) (in isopropanol, 308.15 K): 0.019 | solubility (mole fraction) (in isopropanol, 313.15 K): 0.0217 | solubility (mole fraction) (in isopropanol, 318.15 K): 0.0252 | solubility (mole fraction) (in isopropanol, 323.15 K): 0.0275 | solubility (mole fraction) (in methanol, 278.15 K): 0.00595 | solubility (mole fraction) (in methanol, 283.15 K): 0.00673 | solubility (mole fraction) (in methanol, 288.15 K): 0.00779 | solubility (mole fraction) (in methanol, 293.15 K): 0.00882 | solubility (mole fraction) (in methanol, 298.15 K): 0.00972 | solubility (mole fraction) (in methanol, 303.15 K): 0.0111 | solubility (mole fraction) (in methanol, 308.15 K): 0.0124 | solubility (mole fraction) (in methanol, 313.15 K): 0.0138 | solubility (mole fraction) (in methanol, 318.15 K): 0.0153 | solubility (mole fraction) (in methanol, 323.15 K): 0.0171 | solubility (mole fraction) (in methyl acetate, 278.15 K): 0.0222 | solubility (mole fraction) (in methyl acetate, 283.15 K): 0.0253 | solubility (mole fraction) (in methyl acetate, 288.15 K): 0.0279 | solubility (mole fraction) (in methyl acetate, 293.15 K): 0.0312 | solubility (mole fraction) (in methyl acetate, 298.15 K): 0.0347 | solubility (mole fraction) (in methyl acetate, 303.15 K): 0.0381 | solubility (mole fraction) (in methyl acetate, 308.15 K): 0.0419 | solubility (mole fraction) (in methyl acetate, 313.15 K): 0.0459 | solubility (mole fraction) (in methyl acetate, 318.15 K): 0.0509 | solubility (mole fraction) (in methyl acetate, 323.15 K): 0.0549 | solubility (mole fraction) (in n-butanol, 278.15 K): 0.0154 | solubility (mole fraction) (in n-butanol, 283.15 K): 0.0177 | solubility (mole fraction) (in n-butanol, 288.15 K): 0.0202 | solubility (mole fraction) (in n-butanol, 293.15 K): 0.0228 | solubility (mole fraction) (in n-butanol, 298.15 K): 0.0251 | solubility (mole fraction) (in n-butanol, 303.15 K): 0.0278 | solubility (mole fraction) (in n-butanol, 308.15 K): 0.0312 | solubility (mole fraction) (in n-butanol, 313.15 K): 0.0345 | solubility (mole fraction) (in n-butanol, 318.15 K): 0.0377 | solubility (mole fraction) (in n-butanol, 323.15 K): 0.0415 | solubility (mole fraction) (in n-hexane, 278.15 K): 0.00015 | solubility (mole fraction) (in n-hexane, 283.15 K): 0.00017 | solubility (mole fraction) (in n-hexane, 288.15 K): 0.00019 | solubility (mole fraction) (in n-hexane, 293.15 K): 0.00021 | solubility (mole fraction) (in n-hexane, 298.15 K): 0.00024 | solubility (mole fraction) (in n-hexane, 303.15 K): 0.00027 | solubility (mole fraction) (in n-hexane, 308.15 K): 0.0003 | solubility (mole fraction) (in n-hexane, 313.15 K): 0.00034 | solubility (mole fraction) (in n-hexane, 318.15 K): 0.00036 | solubility (mole fraction) (in n-hexane, 323.15 K): 0.00041 | solubility (mole fraction) (in n-propanol, 278.15 K): 0.00916 | solubility (mole fraction) (in n-propanol, 283.15 K): 0.0109 | solubility (mole fraction) (in n-propanol, 288.15 K): 0.0123 | solubility (mole fraction) (in n-propanol, 293.15 K): 0.0145 | solubility (mole fraction) (in n-propanol, 298.15 K): 0.0165 | solubility (mole fraction) (in n-propanol, 303.15 K): 0.0188 | solubility (mole fraction) (in n-propanol, 308.15 K): 0.0209 | solubility (mole fraction) (in n-propanol, 313.15 K): 0.0237 | solubility (mole fraction) (in n-propanol, 318.15 K): 0.0268 | solubility (mole fraction) (in n-propanol, 323.15 K): 0.0298
